Where a SMILES comes first, the peptide text is derived from it.
biological target: HLA B*1503 (Homo sapiens, UniProt P01889, A329T/A93T/A95T/C349S/D201E/D98Y/E187L/E204Q/K202T/N87E/Q94N/R155S/R180L/S121R/S35A/V306I/V36M/Y140S/Y91S); assay: biochemical; format: binding

Structure (SMILES) | IC50
CC(C)C[C@H](NC(=O)[C@H](CC(C)C)NC(=O)[C@@H](NC(=O)[C@H](CO)NC(=O)[C@H](CO)NC(=O)[C@H](CCCCN)NC(=O)[C@@H](N)CCCCN)[C@@H](C)O)C(=O)N[C@H](C(=O)N[C@@H](Cc1ccccc1)C(=O)O)[C@@H](C)O [3102.1189] (H-KKSSTLLTF-OH) | 0.36 nM
CC[C@H](C)[C@H](NC(=O)[C@H](CO)NC(=O)[C@@H](NC(=O)[C@H](C)NC(=O)[C@H](CC(C)C)NC(=O)[C@H](CC(N)=O)NC(=O)[C@H](CCCCN)NC(=O)[C@@H](N)Cc1ccccc1)[C@@H](C)O)C(=O)N[C@@H](Cc1ccc(O)cc1)C(=O)O [3102.1297] (H-FKNLATSIY-OH) | 1.6 nM
CC[C@H](C)[C@H](NC(=O)[C@H](CCSC)NC(=O)[C@H](C)NC(=O)[C@H](C)NC(=O)[C@@H](N)Cc1ccccc1)C(=O)N[C@H](C(=O)N[C@@H](CCCNC(=N)N)C(=O)N[C@@H](CO)C(=O)N[C@@H](Cc1ccccc1)C(=O)O)[C@@H](C)CC [3102.1048] (H-FAAMIIRSF-OH) | 1.3 nM
C[C@@H](O)[C@H](NC(=O)[C@H](CO)NC(=O)CNC(=O)[C@H](CCCNC(=N)N)NC(=O)[C@H](CC(N)=O)NC(=O)CNC(=O)[C@@H](N)CO)C(=O)N[C@@H](CO)C(=O)N[C@@H](Cc1ccccc1)C(=O)O [3102.1101] (H-SGNRGSTSF-OH) | 25 nM
CSCC[C@H](NC(=O)[C@@H](N)CC(C)C)C(=O)N[C@H](C(=O)N[C@@H](CO)C(=O)NCC(=O)N1CCC[C@H]1C(=O)N[C@@H](CC(N)=O)C(=O)N[C@H](C(=O)N[C@H](C(=O)O)C(C)C)C(C)C)C(C)C [3102.1249] (H-LMVSGPNVV-OH) | 3.8 nM
CC[C@H](C)[C@H](NC(=O)[C@@H](NC(=O)CNC(=O)[C@H](CCC(=O)O)NC(=O)[C@@H]1CCCN1C(=O)[C@H](CCC(N)=O)NC(=O)[C@@H](N)CCCCN)C(C)C)C(=O)N[C@@H](CC(C)C)C(=O)N[C@@H](Cc1ccccc1)C(=O)O [3102.1100] (H-KQPEGVILF-OH) | 3.7 nM
CC[C@H](C)[C@H](NC(=O)[C@H](CCC(N)=O)NC(=O)[C@H](CC(N)=O)NC(=O)[C@H](CC(=O)O)NC(=O)[C@H](CCCNC(=N)N)NC(=O)[C@H](C)NC(=O)[C@@H](N)Cc1ccccc1)C(=O)N[C@@H](CO)C(=O)N[C@@H](Cc1ccccc1)C(=O)O [3102.1132] (H-FARDNQISF-OH) | 0.2 nM
CC[C@H](C)[C@H](N)C(=O)N[C@@H](CCCCN)C(=O)N[C@@H](Cc1ccc(O)cc1)C(=O)N[C@@H](CCSC)C(=O)N[C@H](C(=O)NCC(=O)N[C@@H](CC(N)=O)C(=O)N[C@@H](Cc1ccccc1)C(=O)N[C@@H](CCSC)C(=O)O)[C@@H](C)CC [3102.1120] (H-IKYMIGNFM-OH) | 2.2 nM
C[C@H](NC(=O)[C@@H](N)CCCNC(=N)N)C(=O)N[C@@H](CO)C(=O)N[C@@H](CO)C(=O)NCC(=O)N[C@@H](CC(=O)O)C(=O)N[C@@H](CO)C(=O)N[C@@H](CO)C(=O)N[C@@H](Cc1ccccc1)C(=O)O [3102.1236] (H-RASSGDSSF-OH) | 21 nM
CC(C)C[C@H](N)C(=O)N[C@@H](CCCCN)C(=O)N[C@@H](Cc1ccc(O)cc1)C(=O)N[C@@H](Cc1ccc(O)cc1)C(=O)N[C@@H](Cc1ccc(O)cc1)C(=O)N[C@@H](CO)C(=O)N[C@@H](CC(N)=O)C(=O)N[C@@H](CO)C(=O)N[C@@H](Cc1ccc(O)cc1)C(=O)O [3102.1265] (H-LKYYYSNSY-OH) | 0.24 nM
CC[C@H](C)[C@H](NC(=O)[C@@H](NC(=O)[C@H](CCSC)NC(=O)[C@@H](N)CO)C(C)C)C(=O)N[C@@H](CO)C(=O)N[C@@H](CC(C)C)C(=O)N[C@@H](CC(C)C)C(=O)N[C@@H](CO)C(=O)N[C@@H](CCSC)C(=O)O [3102.1140] (H-SMVISLLSM-OH) | 8 nM
CC[C@H](C)[C@H](N)C(=O)N[C@@H](CCC(N)=O)C(=O)N[C@H](C(=O)N[C@@H](CC(C)C)C(=O)N[C@@H](CC(N)=O)C(=O)NCC(=O)N[C@@H](CCCCN)C(=O)N[C@@H](Cc1c[nH]cn1)C(=O)N[C@@H](Cc1ccccc1)C(=O)O)[C@@H](C)O [3102.1105] (H-IQTLNGKHF-OH) | 11 nM
CC[C@H](C)[C@H](NC(=O)[C@@H](NC(=O)[C@H](CC(N)=O)NC(=O)[C@H](CCC(=O)O)NC(=O)[C@@H]1CCCN1C(=O)[C@H](CO)NC(=O)[C@H](C)NC(=O)[C@H](CCSC)NC(=O)[C@@H](N)Cc1ccccc1)C(C)C)C(=O)O [3102.1095] (H-FMASPENVI-OH) | 6.4 nM
CC[C@H](C)[C@H](N)C(=O)N[C@@H](CCSC)C(=O)N[C@H](C(=O)N[C@@H](CO)C(=O)NCC(=O)N[C@H](C(=O)N[C@H](C(=O)N1CCC[C@H]1C(=O)N[C@@H](Cc1ccccc1)C(=O)O)[C@@H](C)CC)C(C)C)[C@@H](C)O [3102.1305] (H-IMTSGVIPF-OH) | 0.22 nM
CC[C@H](C)[C@H](N)C(=O)N[C@@H](CCCCN)C(=O)N[C@@H](CCCNC(=N)N)C(=O)N[C@H](C(=O)N[C@@H](CO)C(=O)N[C@@H](CO)C(=O)N[C@@H](CO)C(=O)N[C@@H](CC(=O)O)C(=O)N[C@@H](Cc1ccccc1)C(=O)O)C(C)C [3102.1239] (H-IKRVSSSDF-OH) | 1.8 nM
CC[C@H](C)[C@H](N)C(=O)N[C@@H](CC(C)C)C(=O)N[C@@H](Cc1c[nH]cn1)C(=O)N[C@H](C(=O)N[C@@H](CC(=O)O)C(=O)N[C@H](C(=O)N[C@@H](CC(C)C)C(=O)N[C@@H](CO)C(=O)N[C@@H](Cc1ccccc1)C(=O)O)[C@@H](C)CC)C(C)C [3102.1261] (H-ILHVDILSF-OH) | 24 nM
CC[C@H](C)[C@H](NC(=O)[C@@H]1CCCN1C(=O)[C@H](CO)NC(=O)CNC(=O)[C@H](CC(=O)O)NC(=O)[C@H](CC(C)C)NC(=O)[C@@H](NC(=O)[C@H](CCCCN)NC(=O)[C@@H](N)Cc1ccccc1)C(C)C)C(=O)O [3102.1070] (H-FKVLDGSPI-OH) | 0.82 nM
CC(C)[C@H](N)C(=O)N[C@@H](CCCCN)C(=O)N[C@H](C(=O)N[C@@H](CCCCN)C(=O)N[C@@H](CCC(=O)O)C(=O)N[C@@H](CCC(=O)O)C(=O)N[C@@H](CC(N)=O)C(=O)N[C@H](C(=O)N[C@@H](Cc1ccccc1)C(=O)O)[C@@H](C)O)C(C)C [3102.1122] (H-VKVKEENTF-OH) | 0.42 nM
CC(C)[C@H](NC(=O)[C@H](CCC(N)=O)NC(=O)[C@H](CO)NC(=O)[C@@H](NC(=O)[C@H](CO)NC(=O)[C@@H](NC(=O)[C@H](CCC(N)=O)NC(=O)[C@@H](N)Cc1ccc(O)cc1)[C@@H](C)O)C(C)C)C(=O)N[C@@H](C)C(=O)O [3102.1307] (H-YQTSVSQVA-OH) | 1.5 nM
CSCC[C@H](NC(=O)[C@@H](N)CS)C(=O)N[C@@H](CO)C(=O)N[C@@H](CC(N)=O)C(=O)N[C@@H](CO)C(=O)N[C@@H](CCCNC(=N)N)C(=O)N[C@@H](CC(C)C)C(=O)N[C@@H](CO)C(=O)N[C@@H](Cc1ccccc1)C(=O)O [3102.1225] (H-CMSNSRLSF-OH) | 1 nM
CC(C)C[C@H](NC(=O)[C@H](C)NC(=O)[C@H](CO)NC(=O)[C@@H](N)Cc1ccccc1)C(=O)N1CCC[C@H]1C(=O)N[C@H](C(=O)N[C@@H](CC(N)=O)C(=O)N[C@@H](CCC(=O)O)C(=O)N[C@@H](Cc1ccccc1)C(=O)O)[C@@H](C)O [3102.1337] (H-FSALPTNEF-OH) | 0.13 nM
CC(C)C[C@H](NC(=O)[C@@H](NC(=O)[C@H](CCCNC(=N)N)NC(=O)[C@H](CC(N)=O)NC(=O)[C@H](CC(N)=O)NC(=O)[C@H](CCCCN)NC(=O)[C@@H](N)CCCCN)C(C)C)C(=O)N[C@@H](CS)C(=O)N[C@@H](Cc1ccccc1)C(=O)O [3102.1237] (H-KKNNRVLCF-OH) | 1.6 nM
CC(C)C[C@H](NC(=O)[C@@H](NC(=O)[C@H](CC(N)=O)NC(=O)[C@@H]1CCCN1C(=O)[C@@H]1CCCN1C(=O)[C@H](CO)NC(=O)[C@@H](NC(=O)[C@H](CO)NC(=O)[C@@H](N)CO)C(C)C)C(C)C)C(=O)O [3102.1131] (H-SSVSPPNVL-OH) | 18 nM
CC[C@H](C)[C@H](NC(=O)[C@H](Cc1c[nH]cn1)NC(=O)[C@@H](NC(=O)[C@H](Cc1ccc(O)cc1)NC(=O)[C@H](CCC(N)=O)NC(=O)[C@@H](N)CC(C)C)C(C)C)C(=O)N[C@@H](CC(N)=O)C(=O)N[C@@H](CCC(=O)O)C(=O)N[C@@H](CC(C)C)C(=O)O [3102.1187] (H-LQYVHINEL-OH) | 3.7 nM
CC[C@H](C)[C@H](NC(=O)[C@H](CO)NC(=O)[C@H](Cc1ccc(O)cc1)NC(=O)[C@@H](NC(=O)[C@H](C)NC(=O)[C@H](Cc1c[nH]cn1)NC(=O)[C@@H](N)CC(C)C)C(C)C)C(=O)N[C@H](C(=O)N[C@@H](Cc1ccccc1)C(=O)O)C(C)C [3102.1145] (H-LHAVYSIVF-OH) | 8.8 nM
CC[C@H](C)[C@H](NC(=O)[C@H](CO)NC(=O)[C@H](CO)NC(=O)[C@H](CO)NC(=O)[C@H](Cc1ccc(O)cc1)NC(=O)[C@H](C)NC(=O)[C@H](CC(C)C)NC(=O)[C@@H](N)C(C)C)C(=O)N[C@@H](Cc1ccccc1)C(=O)O [3102.1150] (H-VLAYSSSIF-OH) | 5.4 nM
CC(C)C[C@H](N)C(=O)N[C@@H](CCC(=O)O)C(=O)N[C@@H](Cc1ccccc1)C(=O)N[C@@H](CC(N)=O)C(=O)N[C@H](C(=O)N1CCC[C@H]1C(=O)N[C@@H](Cc1ccccc1)C(=O)N[C@H](C(=O)N[C@@H](Cc1ccccc1)C(=O)O)C(C)C)[C@@H](C)O [3102.1212] (H-LEFNTPFVF-OH) | 10 nM
CC[C@H](C)[C@H](N)C(=O)N[C@@H](CCCCN)C(=O)N[C@@H](CCC(=O)O)C(=O)N[C@@H](CC(N)=O)C(=O)N[C@@H](CO)C(=O)N[C@H](C(=O)N[C@@H](Cc1ccc(O)cc1)C(=O)N[C@@H](CO)C(=O)N[C@@H](Cc1ccccc1)C(=O)O)[C@@H](C)CC [3102.1146] (H-IKENSIYSF-OH) | 1.5 nM
CC(C)C[C@H](NC(=O)[C@H](CO)NC(=O)[C@H](CO)NC(=O)[C@@H](NC(=O)[C@H](CCC(=O)O)NC(=O)[C@@H](NC(=O)[C@H](CO)NC(=O)[C@H](CCCCN)NC(=O)[C@@H](N)CC(C)C)C(C)C)[C@@H](C)O)C(=O)O [3102.1056] (H-LKSVETSSL-OH) | 3.8 nM
CC[C@H](C)[C@H](NC(=O)[C@H](CC(N)=O)NC(=O)[C@H](Cc1c[nH]cn1)NC(=O)[C@H](CCC(N)=O)NC(=O)[C@@H](N)C(C)C)C(=O)N[C@@H](CCCCN)C(=O)N[C@@H](Cc1c[nH]cn1)C(=O)N[C@@H](CO)C(=O)N[C@@H](Cc1ccccc1)C(=O)O [3102.1075] (H-VQHNIKHSF-OH) | 0.2 nM

Reference: publication PMC2248166, “Quantitative peptide binding motifs for 19 human and mouse MHC class I molecules derived using positional scanning combinatorial peptide libraries” (Immunome Research, 2008)
